From patent US20260083704A1, “LXR MODULATORS WITH BICYCLIC CORE MOIETY FOR TREATING DYSLIPIDEMIAS” (OrsoBio, Inc., priority 2022, published 2026)

Experiments:
HFD-fed ZDF rats = assay: HFD-fed Zucker diabetic fatty (ZDF) rat model; type: in vivo
Description: (§1) Data are shown as mean±SD. N=5-8 animals per group. *p≤0.05, **p≤0.01, ***p≤0.001, ****p≤0.0001 vs. vehicle, unless otherwise indicated; ^#p≤0.05 pioglitazone vs. vehicle Kruskal-Wallis (non-parametric One-Way ANOVA) test with Dunn's multiple comparisons test (FIG. 4A, FIG. 4B, FIG. 4D), repeated measures two-way ANOVA with Dunnett's multiple comparisons test (FIG. 4C), two-way ANOVA with Sidak's multiple comparisons test (FIG. 4E), Mann-Whitney test (FIG. 4F-G).
(§2) Data are shown as mean±SD. N=5-8 animals per group. *p≤0.05, **p≤0.01, ***p≤0.001, ****p≤0.0001 vs. vehicle, unless otherwise indicated; ^#p≤0.05 pioglitazone vs. vehicle repeated measures two-way ANOVA with Dunnett's multiple comparisons test (FIG. 5A, FIG. 5C, FIG. 5D), Kruskal-Wallis (non-parametric one-way ANOVA) test with Dunn's multiple comparisons test (FIG. 5B, FIG. 5E).
The efficacy of Compound 21/3 was evaluated in three dysmetabolic rodent models including DIO mice, HFD-fed ZDF rats, and HFD-fed SD rats (FIG. 4 and FIG. 5). Briefly, DIO mice were fed a HFD (60% kcal from fat) for 14 weeks and treated with Compound 21/3 (0.3 and 1 mg/kg once daily by oral gavage) for three weeks, […]

HFD-fed SD rats = assay: HFD-fed Sprague-Dawley (SD) rat model; type: in vivo
Description: as §1, §2
The efficacy of Compound 21/3 was evaluated in three dysmetabolic rodent models including DIO mice, HFD-fed ZDF rats, and HFD-fed SD rats (FIG. 4 and FIG. 5). Briefly, DIO mice were fed a HFD (60% kcal from fat) for 14 weeks and treated with Compound 21/3 (0.3 and 1 mg/kg once daily by oral gavage) for three weeks, while ZDF and SD rats were fed HFD for two weeks prior to treatment with Compound 21/3 (0.1 and 1 mg/kg once daily by oral gavage) for two or three weeks, respectively.

LXRα [1] = target: T1, LXRα (Homo sapiens, UniProt Q13133); assay: LXR Gal4 reporter transient transfection assay (mammalian two-hybrid, HEK293), LXRα; type: cell-based; settings: HEK293, NCOR recruitment, mean ± SD; read-out: HEK293 LXRα/NCOR recruitment (M2H) EC50
T1 construct: full length (FL) proteins of LXRα (amino acids 1-447); NP005684
Protocol: LXRα and LXRβ activity status was determined via detection of interaction with coactivator and corepressor proteins in mammalian two-hybrid experiments (M2H). For this, via transient transfection the full length (FL) proteins of LXRα (amino acids 1-447; NP005684; SEQ ID NO:1) or LXRβ-(amino acids 1-461; NP009052; SEQ ID NO:2) or the ligand-binding domains (LBD) of LXRα (amino acids 155-447 SEQ ID NO:3) or LXRβ (amino acids 156-461; SEQ ID NO:4) were expressed from pCMV-AD (Stratagene) as fusions to the transcriptional activation domain of NFkB. As cofactors, domains of either the steroid receptor coactivator 1 (SRC1; amino acids 552-887; SEQ ID NO:5) or of the corepressor NCoR (amino acids 1906-2312; NP006302; SEQ ID NO:6) were expressed as fusions to the DNA binding domain of the yeast transcription factor GAL4 (from pCMV-BD; Stratagene). Interaction was monitored via activation of a coexpressed Firefly Luciferase Reporter gene under control of a promoter containing repetitive GAL4 response elements (vector pFRLuc; Stratagene). Transfection efficiency was controlled via cotransfection of constitutively active pRL-CMV Renilla reniformis luciferase reporter (Promega). HEK293 cells were grown in minimum essential medium (MEM) with 2 mM L-glutamine and Earle's balanced salt solution supplemented with 8.3% fetal bovine serum, 0.1 mM non-essential amino acids, 1 mM sodium pyruvate, at 37° C. in 5% CO2. 3.5×10^4 cells/well were plated in 96-well cell culture plates in growth medium supplemented with 8.3% fetal bovine serum for 16-20 h to ˜90% confluency. For transfection, medium was taken off and LXR and cofactor expressing plasmids as well as the reporter plasmids are added in 30 μL OPTIMEM/well including polyethylene-imine (PEI) as vehicle. Typical amounts of plasmids transfected/well: pCMV-AD-LXR (5 ng), pCMV-BD-cofactor (5 ng), pFR-Luc (100 ng), pRL-CMV (0.5 ng). Compound stocks were prepared in DMSO, prediluted in MEM to a total volume of 120 μL, and added 4 h after addition of the transfection mixture (final vehicle concentration not exceeding 0.2%). Cells were incubated for additional 16 h, lysed for 10 min in 1×Passive Lysis Buffer (Promega) and Firefly and Renilla luciferase activities were measured sequentially in the same cell extract using buffers containing D-luciferine and coelenterazine, respectively. Measurements of luminescence were done in a BMG-luminometer.
(§3) The potencies of Compound 21/3 and its analog, Compound pre-6/3, against LXRα and LXRβ were evaluated in biochemical binding assays, cellular mammalian two-hybrid (M2H) interaction assays evaluating nuclear receptor co-repressor (NCOR) recruitment, and cellular reporter assays evaluating transcriptional activity (Table 5).

[2] = Plasma and liver exposures in mice dosed 1 mg/kg by oral gavage; type: in vivo; settings: 1 mg/kg oral gavage
Protocol: Data are shown as mean±SD. N=3-8 wells per treatment.
The efficacy of Compound 21/3 and Compound pre-6/3 were evaluated in diet-induced obese (DIO) mouse and rat models.

LXRα [3] = target: T2, LXRα (Homo sapiens, UniProt Q13133); assay: Biochemical binding assay LXRα; settings: mean ± SD; read-out: LXα binding EC50
T2 sequence (Q13133 1-447): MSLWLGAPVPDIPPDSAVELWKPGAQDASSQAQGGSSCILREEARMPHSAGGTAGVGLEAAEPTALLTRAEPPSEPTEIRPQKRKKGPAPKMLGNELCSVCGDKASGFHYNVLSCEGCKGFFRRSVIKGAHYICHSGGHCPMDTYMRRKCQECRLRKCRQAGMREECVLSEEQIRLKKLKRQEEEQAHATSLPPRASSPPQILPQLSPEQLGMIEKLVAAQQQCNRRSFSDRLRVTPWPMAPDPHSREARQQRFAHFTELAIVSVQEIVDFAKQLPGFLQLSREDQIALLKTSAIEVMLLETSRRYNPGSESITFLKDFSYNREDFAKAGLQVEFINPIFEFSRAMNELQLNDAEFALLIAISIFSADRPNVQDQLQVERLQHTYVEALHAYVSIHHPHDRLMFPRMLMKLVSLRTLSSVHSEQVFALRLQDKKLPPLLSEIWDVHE
Protocol: as §3

[4] = 0.1 and 1 mg/kg once daily oral

In the case of `N#Cc1cccc(C#N)c1-c1c(-c2cccc(-c3ccc(C(=O)NCC(=O)O)cc3Cl)c2)n(S(=O)(=O)c2ccc(C(F)F)cc2)c2ccc(F)cc12` [Compound 21/3], the “hepatic expression and plasma levels of ANGPTL3” value (HFD-fed ZDF rats; 15 mg/kg once daily oral) is reported as “reduced”, the “immunostaining of pancreatic sections for insulin relative to vehicle” value (HFD-fed ZDF rats; 15 mg/kg once daily oral, 5 weeks) is reported as “more prominent staining for insulin” and the “glucose tolerance (oral glucose tolerance test)” value (HFD-fed ZDF rats; 15 mg/kg once daily oral, after 4 weeks of dosing) is reported as “significantly improved”. The “liver expression of DNL genes (Srebp1c, Fasn, Acaca, Scd1)” value (HFD-fed ZDF rats; [4]) was “dose-dependently reduced”, the “reduction of plasma TG compared with vehicle” value (HFD-fed ZDF rats; highest dose 1 mg/kg, p≤0.05) was 96% and the “maximal reduction of liver TG versus vehicle” value (HFD-fed ZDF rats; p≤0.01) was 49%. For the same compound, the “reduction of plasma total cholesterol (TC) at end of treatment compared with vehicle” value (HFD-fed ZDF rats; p≤0.05) was 67%, the “liver expression of DNL genes (Srebp1c, Fasn, Acaca, Scd1)” value (HFD-fed SD rats; [4]) was “dose-dependently reduced” and the “reduction of plasma TG compared with vehicle” value (HFD-fed SD rats; highest dose 1 mg/kg, p≤0.05) was 59%. The “maximal reduction of liver TG versus vehicle” value (HFD-fed SD rats; p=0.07) was 42%, the EC50 (LXRα [1]) was 8 ± 7 nM and the “liver exposures compared with Compound pre-6/3” value [2] was “higher and sustained liver exposures”. For the same compound, the “plasma exposures compared with Compound pre-6/3” value [2] was “lower plasma exposures” and the EC50 (LXRα [3]) was 7 ± 16 nM.
In the case of `N#Cc1cccc(C#N)c1-c1c(-c2cccc(-c3ccc(C(=O)O)cc3Cl)c2)n(S(=O)(=O)c2ccc(C(F)F)cc2)c2ccc(F)cc12` [pre-6/3], the “hepatic expression of Angptl3, Angptl4, Angptl8, ApoC1, ApoC2, ApoC3” value (HFD-fed ZDF rats; 5 mg/kg once daily oral) is reported as “suppressed”, the EC50 (LXRα [1]) is reported as 0.2 ± 0.1 nM and the EC50 (LXRα [3]) is reported as 14 ± 5 nM.
